How the values were obtained:
[1] = test system: patients suffering from advanced Parkinson's disease with severe levodopa-induced dyskinesias
Description: The patients were given optimal anti-parkinsonian drug treatment during the three months prior to the clinical trial. Duration of study was six weeks. First two weeks served to accumulate baseline data. Patients filled up dyskinesias diaries in which they marked at every waking hour whether involuntary movements were present and their severity (mild/moderate and severe). […] The dose was then increased to 25 mg, b.i.d. for additional four days (once in the morning and once in the early afternoon). The dose as then further increased to two 50 mg tablets (total of 100 mg. daily) which the patients took for three additional weeks. They continued to fill up their dyskinesias diaries throughout the trial period.

baboons = settings: induced by 3-nitropropionic acid, Palfi et al. 1997; cited from earlier work

Question: Which Adverse effects ([1]; riluzole up to 50 mg b.i.d.) does the source give for `Nc1nc2ccc(OC(F)(F)F)cc2s1` [Riluzole, 2-amino-6-trifluoromethoxy benzothiazole] here?
Answer: no report of adverse-effects

Question: What about the Tolerability ([1]; riluzole up to 50 mg b.i.d.) of the same compound?
Answer: well-tolerated

Question: And the “Efficacy of levodopa and other anti-parkinsonian drugs and total daily time spent in "on" periods” value ([1]; when patients took riluzole)?
Answer: no decrease

Question: And the “Worsening of the parkinsonian signs and symptoms” value ([1]; when patients took riluzole)?
Answer: no worsening

Question: And the Abnormal motor movement (baboons)?
Answer: reduces various abnormal motor movement

Reference: patent publication US6417210B1 (MOR-Research Applications Ltd., priority 1998, dated 2002)
